Assay results taken from paper PMC5635289, “Differential Effects of Angelicin Analogues on NF-κB Activity and IL-8 Gene Expression in Cystic Fibrosis IB3-1 Cells” (Mediators of Inflammation, 2017).

What was measured:
IB3-1 cells = assay: Cell proliferation assay on IB3-1 cells; type: cell-based; details: Homo sapiens, cell number/ml after 48 h of treatment
Experimental: Monolayers of 60% confluent IB3-1 cells were seeded in 24- or 12-well plates in LHC-8 medium in the presence of 5% FBS. After 24 h, TMA derivatives were added at serial dilutions and incubated for further 2-3 days. The effects of compounds (TMA derivatives) on the cell proliferation were analyzed as elsewhere described. A first analysis was performed with serial dilutions to obtain 50 μM, 200 μM, and 800 μM solutions. In order to determine IC50 values, the following concentrations were used 12.5, 25, 50, 100, 200, and 800 μM. In order to prepare the cells for counting, they were washed with PBS 1X and detached with trypsin/EDTA. Cells were suspended in physiological solution and counted with a Z2 Coulter Counter (Coulter Electronics, Hialeah, FL, USA). The cell number/ml was determined as IC50 after 2 days of culture, when untreated cells are in log phase of cell growth.
In order to obtain preliminary information on the biological properties of TMA derivatives, their effects on cell growth were examined on IB3-1 cell line, excellent biological model to study new potential anti-inflammatory molecules. The use of this cell line to study the expression of proinflammatory molecules under a variety of stimuli is well established. Monolayers of 60% confluent IB3-1 cells were seeded in 12-well plate in LHC-8 medium with 5% FBS. After 24 h, compounds were added at different concentrations and the cell number/ml was determined after further 48 h of culture.

IL-8 mRNA = assay: RT-qPCR quantification of IL-8 mRNA in TNF-α-induced IB3-1 cells; type: cell-based, human; details: for inhibition at 1 µM / inhibition at 10 µM: Homo sapiens, IB3-1, 24 h, TNF-α-induced IB3-1 cells, RT-qPCR, na = not active at the used concentrations; for inhibition at 1 µM: 1 μM compound; for inhibition at 10 µM: 10 μM compound; for Inhibition of IL-8 expression (range given): IB3-1 cells, low concentrations (1–10 μM), concentration not specified per value
Experimental: Monolayers of 60% confluent IB3-1 cells were seeded in 6- or 12-well plates in LHC-8 medium in the presence of 5% FBS. After 24 h, pure derivatives were added, 5 h before stimulation with TNF-α 80 ng/ml (ORF Genetics, Kopavogur, Iceland), and incubated for a further 24 h. Total RNA was extracted using TRIzol Reagent (Sigma-Aldrich, St. Louis, MO) following the manufacturer's instructions. Reverse transcription (RT) was performed using Reverse Transcription System kit (Promega, Madison, WI): 1 μg of total RNA was reverse transcribed in the presence of 5 mM MgCl2, 1X reverse transcription buffer (10 mM Tris-HCl, 50 mM KCl, and 0.1% Triton X-100), 1 mM each dNTPs, 20 U recombinant Rnasin Ribonuclease Inhibitor, 15 U AMV Reverse Transcriptase, and 0.5 μg oligo(dT)15 primers in a total volume of 20 μl for 10 min at 70°C and 60 min at 42°C. The resulting cDNA was quantified by relative quantitative real-time PCR (real-time qPCR). For real-time qPCR, 1 μl of cDNA was used for each SYBR Green reaction to quantify the relative expression of IL-8. Each 25 μl of total reaction volume contained 1 μl of cDNA, 10 pmol of primers, 1 iQTM SYBR Green Supermix (Bio-Rad Laboratories Inc., Hercules, CA). Real-time PCRs were performed for a total of 40 cycles (denaturation, 95°C for 10 s; annealing, 68°C for 30 s for IL-8, 65°C for 30 s for IL-6; elongation, 72°C for 60 s) using an iCycler IQ5 (Bio-Rad Laboratories Inc., Hercules, CA). Primer sequences were as follows: IL-8 forward: 5′-GTGCAGTTTTGCCAAGGAGT-3′ and IL-8 reverse: 5′-TTATGAATTCTCAGCCCTCTTCAAAAACTTCTC-3′. The relative proportions of each amplified template were determined utilizing the threshold cycle (CT) value for each performed PCR. The DDCt method was used to compare gene expression data. Each sample was quantified in duplicate. Changes in mRNA expression level were calculated following normalization with the GAPDH calibrator gene (housekeeping gene) and expressed as fold change over untreated samples [24]. Duplicates of negative controls (no template cDNA) were also run with every experimental plate to assess specificity and indicate potential contamination.
With the aim to study the effective anti-inflammatory properties of these new psoralen derivatives, we decided to further characterize the TMA derivatives for their potential activities on the expression of IL-8 gene, known to be involved in the lung inflammatory process in CF. […] More specifically, we were first interested in identifying compounds with low antiproliferative activity, but effective in downmodulating inflammatory gene expression without achieving a full suppression of these genes. We therefore employed IB3-1 cystic fibrosis cells, incubated for 5 h with two concentrations (1 μM and 10 μM) of selected compounds, and then treated with TNF-α ([…]). In the IB3-1 cystic fibrosis cellular model, NF-κB-dependent genes, including the gene encoding for the proinflammatory protein IL-8, generally are activated following infection with P. aeruginosa or treatment with TNF-α or IL-1β [26, 28, 31]. This feature is very important in the pathophysiology of CF, since several clinical complications are caused by exacerbation of this inflammatory response. After 1 day of incubation, cellular RNA was isolated for RT-qPCR analysis. All the TMA analogues found to be active in inhibiting NF-κB/DNA interactions were analyzed for their effects on inhibition of TNF-α-induced accumulation of IL-8 mRNA.

NF-κB p50 = target: T1, NF-κB p50 (Homo sapiens, UniProt P19838); assay: EMSA, inhibition of NF-κB/DNA interactions; type: binding; details: NF-κB p50 and 32P-labeled NF-κB oligonucleotide, MIC = minimal inhibitory concentration, 12.5 μM was the lowest concentration used
T1 construct: This assay was performed using purified NF-κB p50; purchased Promega
T1 sequence (P19838 1-433 limits assumed): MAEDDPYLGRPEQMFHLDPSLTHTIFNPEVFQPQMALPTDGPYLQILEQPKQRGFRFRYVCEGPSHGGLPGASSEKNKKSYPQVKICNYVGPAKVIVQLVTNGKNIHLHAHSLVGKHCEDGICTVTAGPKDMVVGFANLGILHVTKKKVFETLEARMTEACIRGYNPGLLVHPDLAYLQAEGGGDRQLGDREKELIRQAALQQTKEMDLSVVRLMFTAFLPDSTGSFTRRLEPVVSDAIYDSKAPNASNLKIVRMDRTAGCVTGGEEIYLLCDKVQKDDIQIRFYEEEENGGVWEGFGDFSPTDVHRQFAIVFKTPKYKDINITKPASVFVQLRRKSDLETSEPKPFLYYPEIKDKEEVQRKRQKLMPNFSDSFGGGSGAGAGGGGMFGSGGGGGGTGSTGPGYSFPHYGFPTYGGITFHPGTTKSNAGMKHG
Experimental: Electrophoretic mobility shift assays were performed using double-stranded ^32P-labeled oligonucleotides as target DNA. Binding reactions were set up as previously described in binding buffer (10% glycerol, 0.05% NP-40, 10 mM Tris-HCl pH 7.5, 50 mM NaCl, 0.5 mM DTT, and 10 mM MgCl2), in the presence of 0.1 μl/20 μl of NF-κB p50 (50 gsu) (Promega, Madison, WI, USA) and 0.25 ng of labeled oligonucleotide, in a total volume of 20 μl. After 30 min binding at room temperature, samples were electrophoresed at constant voltage (200 V for 30 min) through a low ionic strength (0.25 TBE buffer) (1 TBE/40.089 M Tris-borate, 0.002 M EDTA) on 6% polyacrylamide gels until the tracking dye (bromophenol blue) reached the bottom of a 16 cm slab. Gels were dried and exposed for autoradiography with intensifying screens at […]. In these experiments, DNA/protein complexes migrate through the gel with slower efficiency. In studies on the inhibitors of protein/DNA interactions, addition of the reagents was as follows: (i) nuclear factors, (ii) active principles, (iii) binding buffer, and (iv) labeled oligonucleotides mimicking the binding sites for TF to be modulated. The nucleotide sequence of double-stranded target DNA utilized in these experiments was 5′-CGC TGG GGA CTT TCC ACG G-3′ (sense strand, NF-κB). The synthetic oligonucleotides utilized in this study were purchased from Sigma Genosys (Sigma Genosys, Cambs, UK). To calculate the effective concentrations, three different autoradiograms obtained from different time exposures were scanned and compared to control EMSA performed without addition of angelicin analogues (two independent experiments were performed).
The effects of TMA derivatives on NF-κB- (nuclear factor-kappaB-) mediated induction of proinflammatory genes was verified first in vitro by electrophoretic mobility shift assay (EMSA) with the aim to verify and quantify the possible inhibition of NF-κB/DNA interactions. This assay was performed using purified NF-κB p50 and ^32P-labeled target NF-κB double-stranded oligonucleotide mimicking the NF-κB consensus sequence present within the IL-8 gene promoter.

| SMILES | IC50 (IB3-1 cells) [µM] | inhibition at 1 µM (IL-8 mRNA) [%] | Inhibition of NF-κB/DNA complex (MIC) (NF-κB p50) | inhibition at 10 µM (IL-8 mRNA) [%] | Inhibition of IL-8 expression (range given) (IL-8 mRNA) |
| --- | --- | --- | --- | --- | --- |
| Cc1cc(=O)oc2c1cc(Cl)c1occ(C)c12 [Compound 12] | > 800 | 0 | 12.5 µM |  |  |
| COC1Cc2c(ccc3c(C)cc(=O)oc23)O1 (stereo not drawn) [Compound 21] | 678 |  |  |  |  |
| Cc1cc(=O)n(C)c2c1cc(C)c1occ(C)c12 [Compound 19] | 131 |  |  |  |  |
| Cc1cc2c(C(F)(F)F)cc(=O)oc2c2c(C)coc12 [Compound 7] | > 800 |  | > 100 µM |  |  |
| C=CCc1c(O)c(C)cc2c(CO)cc(=O)oc12 [Compound 38] | 506 | 36 | 25 µM | 81 | 52–83% |
| Cc1cc(=O)oc2c3c(ccc12)OC(CBr)C3 (stereo not drawn) [Compound 22] | 180 |  | > 100 µM |  |  |
| Cc1cc2c(CBr)cc(=O)oc2c2c(C)coc12 [Compound 10] | < 50 |  | < 12.5 µM |  |  |
| Cc1coc2c1c1occ(C)c1c1oc(=O)cc(C)c21 [Compound 29] | > 800 |  | <12.5 (^∗) μM | 12 |  |
| Cc1cc2c(C)cc3oc(=O)cc(C)c3c2o1 [Compound 33] | > 800 | 66 | 12.5 to 25 µM | 67 | 52–83% |
| Cc1cc(=O)oc2c1cc(Br)c1occ(C)c12 [Compound 13] | > 800 |  | 12.5 µM |  |  |
| COCc1cc(=O)oc2c1cc(C)c1occ(C)c12 [Compound 9] | > 800 |  | 12.5 µM |  |  |
| COCc1cc(=O)oc2c1cc(C)c1scc(C)c12 [Compound 15] | > 800 |  | > 100 µM |  |  |
| Cc1c(C)c2cc(C)c3occc3c2oc1=O [Compound 28] | > 800 | 21 | 12.5 to 25 µM | 36 |  |
| Cc1cc(=O)oc2c3c(ccc12)OC(C)C3 (stereo not drawn) [Compound 20] | 154 |  |  |  |  |
| Cc1cc2c(CO)cc(=O)oc2cc1O [Compound 37] | > 800 |  | 12.5 to 25 µM |  |  |
| Cc1coc2c1c(C)cc1oc(=O)cc(C)c12 [Compound 32] | > 800 | 73 | <12.5 (^∗) μM | 52 |  |
| Cc1oc2c(c(C)cc3oc(=O)cc(C)c32)c1C [Compound 34] | > 800 | 68 | <12.5 (^∗) μM | 47 |  |
| Cc1cc(=O)oc2c1cc(C)c1scc(C)c12 [Compound 14] | > 800 |  | > 100 µM |  |  |
| Cc1cc(=O)[nH]c2c1cc(C)c1oc(CO)c(C)c12 [Compound 18] | > 800 |  |  |  |  |
| Cc1cc(=O)oc2c1ccc1occ(C)c12 [Compound 11] | 182 |  | > 100 µM |  |  |
| Cc1cc2c(o1)c(C)cc1c(CO)cc(=O)oc12 [Compound 25] | 551 |  | 25 to 50 µM |  |  |
| Cc1cc2ccc(=O)oc2c2c(C)coc12 [Compound 6] | 454 |  | > 100 µM |  |  |
| Cc1oc2c(C)cc3c(C)cc(=O)oc3c2c1CO [Compound 23] | 452 | 3 |  | 11 |  |
| CC(=O)OCc1oc2c(C)cc3c(C)cc(=O)oc3c2c1C [Compound 2] | > 800 |  | > 100 µM |  |  |
| COCc1oc2c(C)cc3c(C)cc(=O)oc3c2c1C [Compound 3] | > 800 |  | > 100 µM |  |  |
| Cc1cc2c(CO)cc(=O)oc2c2cc(CO)oc12 [Compound 24] | 197 |  | > 100 µM |  |  |
| Cc1cc(=O)oc2c1cc(C)c1occc12 [Compound 4] | > 800 |  | 75 µM |  |  |
| Cc1cc(=O)[nH]c2c1cc(C)c1occ(C)c12 [Compound 17] | 193 |  | > 100 µM |  |  |
| Cc1cc(=O)oc2c1cc(C)c1[nH]nnc12 [Compound 31] | > 800 |  | 25 µM |  |  |
